Reference: US20250120958A1, “Treatment of GM2 Gangliosidosis” (Azafaros B.V., priority 2022, published 2025)
Like-named read-outs stand apart in the source and are kept apart here.

Legend:
GbA2 = target: T1, GbA2 (Homo sapiens, UniProt Q9HCG7); assay: In vitro potency on GbA2 (non-lysosomal glucosylceramidase); assay type: biochemical
T1 sequence (Q9HCG7 1-927): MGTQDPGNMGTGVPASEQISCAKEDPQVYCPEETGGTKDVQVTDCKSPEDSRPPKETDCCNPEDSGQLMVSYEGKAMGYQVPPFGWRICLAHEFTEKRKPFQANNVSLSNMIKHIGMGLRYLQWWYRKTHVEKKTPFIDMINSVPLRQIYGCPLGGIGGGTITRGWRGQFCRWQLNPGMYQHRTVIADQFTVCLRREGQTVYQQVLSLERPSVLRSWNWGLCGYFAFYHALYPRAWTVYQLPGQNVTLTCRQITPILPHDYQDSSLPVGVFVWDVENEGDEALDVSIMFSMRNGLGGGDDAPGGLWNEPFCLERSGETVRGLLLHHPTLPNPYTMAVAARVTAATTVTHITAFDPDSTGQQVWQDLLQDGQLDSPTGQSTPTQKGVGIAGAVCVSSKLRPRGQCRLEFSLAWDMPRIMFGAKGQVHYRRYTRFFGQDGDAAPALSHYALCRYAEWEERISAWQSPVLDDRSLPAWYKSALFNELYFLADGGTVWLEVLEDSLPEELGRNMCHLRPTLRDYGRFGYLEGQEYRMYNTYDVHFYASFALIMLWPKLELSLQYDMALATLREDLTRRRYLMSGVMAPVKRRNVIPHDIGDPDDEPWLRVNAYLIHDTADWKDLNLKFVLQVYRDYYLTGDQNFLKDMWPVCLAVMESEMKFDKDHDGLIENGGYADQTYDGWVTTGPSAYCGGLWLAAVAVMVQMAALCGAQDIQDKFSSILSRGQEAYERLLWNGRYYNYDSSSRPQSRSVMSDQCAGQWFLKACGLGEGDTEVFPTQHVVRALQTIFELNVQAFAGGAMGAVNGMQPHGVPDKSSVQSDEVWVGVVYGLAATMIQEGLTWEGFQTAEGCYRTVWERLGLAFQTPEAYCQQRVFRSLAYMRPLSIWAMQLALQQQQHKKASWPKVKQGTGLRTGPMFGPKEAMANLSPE

[1] = test system: Sandhoff mouse model (Hexb (−/−)); assay: Survival study in Sandhoff mouse model; assay type: in vivo; conditions: Hexb (−/−) mice
Source text: (strain: B6; 129S4-Hexbtm1Rlp/J). The mouse line was maintained by crossing homozygous −/− males with heterozygous females (generating litters with 50%−/− and 50%+/−) under specific pathogen-free conditions. All mice were housed in individual, ventilated cages (IVCs) with 12-h light/dark cycles with food and water ad libitum. Young-adult mice of the same genetic C57BL/6 background were from Jackson Laboratories. Breeding of Hexb mutants will target needs of the “Long-term” cohorts first, followed by the “16-week” biomarker study.
Cohort 1: There were a total of 6 dose groups and 2 vehicle groups using both Hexb+/− and Hexb−/− animals. […] Dosing occurred daily from day 30 to day 170, unless the animal was prematurely euthanized per protocol.
A subsequent study to explore lower doses was also performed (in the same manner as in Example 2) in which doses of 0.02, 0.06, 0.2 and 0.5 mg/kg/day were used. […] It is unclear why the 0.06 mg/kg/day had less survival as formulations were checked and confirmed accurate dosing (internal data).

[2] = test system: Sandhoff mouse model (Hexb (−/−)); assay: Open field test (OFT) in Sandhoff mice; assay type: in vivo; conditions: Hexb (−/−) mice vs vehicle, 0.5-6 mg/kg/day
Description: The OFT was conducted using a 40×40 cm sized apparatus in a quiet room and constant lighting conditions. Trial duration was 5 min. All trials were videotaped and later analysed using the tracking software Smart® Version 3.0.05. Measures included the average locomotion speed, walked distance and time spent in outer and inner zones of the field.
Behavioral assessments, including open field tests (OFT, ActiMot, TSE systems) and rotarod (RR, IITC Life Sciences), were also performed. The OFT assessed motor skills by placing a mouse into a square box with high walls for 5 minutes to record several parameters, including distance travelled (centimetres) and resting time in zone (seconds). Motor coordination of mice was assessed using a RR apparatus as per previously published protocol (Osmon, Vyas et al. 2018). Briefly, mice were placed on moving cylinders that accelerated from 4 to 40 rotations per minute (rpm) over 5 minutes. Each mouse was allowed three trials on the RR with a minimum of 10 minutes for rest in-between assessments. The highest number achieved was recorded for each of the following parameters: latency to fall, end rotations per minute and distance travelled.

[3] = Plasma pharmacokinetics after 16 weeks of once daily administration (LC-MS/MS); assay type: in vivo, mouse
Description: At the end of the defined treatment period, mice were humanely euthanized by transcardial perfusion with Ringer solution after C02 asphyxiation. […]. Before perfusion, blood samples were collected via cardiac puncture into K2EDTA tubes and stored on wet ice. Whole blood was processed to plasma by centrifugation (3000 g for 10 minutes at 5° C.) within 30 min of collection and stored at −75° C.
Unless otherwise stated, the methodology and sample collection were performed as in Example 2.

Hexb (+/−) mice = assay: Lifespan of heterozygous Hexb (+/−) mice under treatment; conditions: 3 mg/kg/day
Description: For all cohorts, drug and/or vehicle (control) were administered by gastric gavage once a day, between 8.00-12.00 am, from the age of 30 days until euthanasia.
In addition, animals heterozygous for the Hexb gene (+/−) were treated with vehicle or 3 mg/kg/day. Dosing continued until the animals reached their humane endpoints determined in a blinded fashion by the animal care staff and primarily consisted of the inability to reach sternal recumbency after 10 seconds and, if achieved, was additionally verified by the senior laboratory technician prior to the commencement of the animal being euthanized.

## OC[C@H]1[C@@H](O)[C@H](O)[C@@H](O)CN1CCCCCOCc1ccc(-c2ccccc2)c(F)c1 [AZ-3102]
GbA2
  inhibitory activity on GbA2: low nM
GbA2; in vitro potency
  IC50: 0.692 nM
[1]; 0.02 mg/kg/day
  median survival: 120 days
[1]; 0.06 mg/kg/day
  median survival: 116 days
[1]; 0.2 mg/kg/day
  median survival: 133 days
[1]; 0.5 mg/kg/day
  median survival: 138 days
[1]; 0.5-6 mg/kg/day oral gavage daily, vs vehicle (115 days)
  increase of average median survival: 26 days
[1]; once daily gavage
  minimal effective dose on survival: 0.2 mg/kg/day
[1]; treated vs vehicle/untreated
  increase in survival / life expectancy: 22%
[2]
  OFT assessments (Total Distance Travelled, Resting Time in Zone): significantly improved
[3]; 6 vs 0.5 mg/kg/day
  Cmax difference between lowest and highest dose: approximately 7 fold
[3]; Hexb (−/−) (Sandhoff mice), mouse, oral, plasma, 0.5 to 6 mg/kg/day, steady state, read-out: Cmax, range over doses
  Cmax: 100 to 674 ng/mL
[3]; Hexb (−/−) (Sandhoff mice), mouse, oral, plasma, 0.5 to 6 mg/kg/day, steady state, read-out: mean AUC0-24, range over doses
  AUC(0-t): 417 to 3610 ng·h/mL
[3]; Hexb (−/−) (Sandhoff model), mouse, plasma, po, Sand A, Hexb (−/−), 6 mg/kg/day, 16 weeks once daily, read-out: AUC0-24
  AUC(0-t): 3610 ng·h/mL
[3]; Hexb (−/−) (Sandhoff model), mouse, plasma, po, Sand A, Hexb (−/−), 6 mg/kg/day, 16 weeks once daily, read-out: Cmax
  Cmax: 674 ng/mL
[3]; Hexb (−/−) (Sandhoff model), mouse, plasma, po, Sand B, Hexb (−/−), 3 mg/kg/day, 16 weeks once daily, read-out: AUC0-24
  AUC(0-t): 1980 ng·h/mL
[3]; Hexb (−/−) (Sandhoff model), mouse, plasma, po, Sand B, Hexb (−/−), 3 mg/kg/day, 16 weeks once daily, read-out: Cmax
  Cmax: 446 ng/mL
[3]; Hexb (−/−) (Sandhoff model), mouse, plasma, po, Sand D, Hexb (−/−), 1.5 mg/kg/day, 16 weeks once daily, read-out: AUC0-24
  AUC(0-t): 987 ng·h/mL
[3]; Hexb (−/−) (Sandhoff model), mouse, plasma, po, Sand D, Hexb (−/−), 1.5 mg/kg/day, 16 weeks once daily, read-out: Cmax
  Cmax: 159 ng/mL
[3]; Hexb (−/−) (Sandhoff model), mouse, plasma, po, Sand E, Hexb (−/−), 0.5 mg/kg/day, 16 weeks once daily, read-out: AUC0-24
  AUC(0-t): 417 ng·h/mL
[3]; Hexb (−/−) (Sandhoff model), mouse, plasma, po, Sand E, Hexb (−/−), 0.5 mg/kg/day, 16 weeks once daily, read-out: Cmax
  Cmax: 100 ng/mL
[3]; Hexb (−/−) and Hexb (+/−), mouse, plasma, oral, all doses
  concentration at 24 h: ~1 ng/mL
[3]; Sand E, Hexb (−/−), 0.5 mg/kg/day
  Cmax/D: 200 (ng/mL)/(mg/kg)
[3]; mouse, plasma, po, Het B, Hexb (+/−), 3 mg/kg/day, 16 weeks once daily, read-out: AUC0-24
  AUC(0-t): 1960 ng·h/mL
[3]; mouse, plasma, po, Het B, Hexb (+/−), 3 mg/kg/day, 16 weeks once daily, read-out: Cmax
  Cmax: 370 ng/mL
Hexb (+/−) mice
  effect on lifespan compared to vehicle: no effect on lifespan
